# Test results taken from patent US10245328B2, “Gadolinium complex comprising DO3A-tranexamic acid conjugate” (KYUNGPOOK NATIONAL UNIVERSITY INDUSTRY-ACADEMIC COOPERATION …, priority 2014, dated 2019).
# Legend:
# [1] = Stability against hydrolysis in H2O (HPLC, 197 nm); assay type: physicochemical; conditions: for HPLC peak 2.38 min, 2b (trans) / HPLC peak 2.88 min, 2b (cis) / HPLC peak 3.16 min / HPLC peak 3.84 min / HPLC peak 7.66 min / HPLC peak 24.42 min / HPLC peak 28.12 min / HPLC peak 29.92 min / HPLC peak 34.46 min, Acid / HPLC peak 49.58 min: 2b in water; for HPLC peak 6.54 min, 2d / HPLC peak 7.79 min / HPLC peak 8.86 min / HPLC peak 33.15 min / HPLC peak 40.33 min / HPLC peak 40.81 min / HPLC peak 43.77 min / HPLC peak 44.51 min / HPLC peak 46.56 min: 2d in water; for HPLC peak 2.32 min / HPLC peak 4.98 min / HPLC peak 17.21 min, 2e / HPLC peak 23.70 min, 2e isomer / HPLC peak 40.63 min / HPLC peak 42.14 min / HPLC peak 43.00 min / HPLC peak 44.95 min / HPLC peak 45.93 min / HPLC peak 46.64 min / HPLC peak 48.46 min / HPLC peak 49.36 min: 2e in water
# Experimental: The contrast agents of the present series 100 mg are dissolved in distilled water 10 mL and is maintained as they are for 72 hours at 50° C. Using HPLC, O.D. (Optical Density) values are read at 197 nm and the stability of the agents is determined. The substances at each retention time are examined using LC Mass Spectroscopy for accurate identification of decomposed products.
# ICR mice = assay: In vivo MR experiment, T1-weighted images after tail vein injection; conditions: for signal enhancement / signal strength at the liver / liver-specificity / class of contrast agent: 0.1 mmol Gd/kg i.v.; for signal enhancement / signal strength at the liver: 1.5 T, initial 1 hour; for liver-specificity / class of contrast agent: in vivo MR images of mice
# Experimental: The in vivo experiment is executed with compliance to a regulation of Animal Research Committee of KNU. 29-31 g weight 6-weeks male ICR mice are used. […] The measurement is carried out before and after the injection of the complexes 2a-e through the tail vein. […] After the mice wake from the anesthesia after each measurement, the mice were placed in a cage capable of free access to feed and food. For this measurement, the animals are held at about 37° C. using a warm water blanket. MR images are taken using a 1.5 T MR unit (GE Healthcare, Milwaukee, Wis.) with a manual RF coil for a small animal. The coil may be of a receiver type having a 50 mm inner diameter. […] MR images are collected for 24 h after the injection. Anatomical positions having an improved contrast are set for a liver, a bile duct, and a kidney on (post contrast) MR images. For quantitative measurements, a signal intensity in a region of interest (ROI) is measured using Advantage Window software (GE medical, U.S.). The CNR is calculated using a following equation (1): […] SNR is a […].
# [2] = Relaxation rate measurement (R1, R2) in PBS and in PBS solution of HSA; assay type: physicochemical; conditions: 293K; for R1 / R2: PBS pH 7.4, 64 MHz (1.5 T); for R1 in 0.67 mM HSA / R2 in 0.67 mM HSA: PBS solution of 0.67 mM HSA, 64 MHz
# Experimental: T1 measurement is carried out using an inversion recovery method at 1.5 T (64 MHz) in a variable inverse time (TI). MR images are obtained for 35 different TI values in a range of 50 to 1750 ms. A T1 relaxation time is obtained from a nonlinear least-squares fit of a signal strength measured at each TI value. For a T2 CPMG (Carr-Purcell-Meiboon-Gill) pulse sequence measurement, the measurement is adapted to a multi spin-echo measurement. 34 images are obtained at 34 different echo time (TE) values in a range of 10 to 1900 ms. The T2 relaxation time is obtained from a nonlinear least-squares fit of mean pixel values for multi spin-echo measurement at each echo time. Next, a relaxation rate (R1 and R2) is calculated as an inverse of a relaxation time per mM. The determined relaxation time (T1 and T2) and relaxation rate (R1 and R2) are subjected to an image processing to get a relaxation time map and relaxation rate respectively.
# For comparison between the complexes 2a-e, there is no noticeable difference in R1's. The measurement is carried out for two different media, that is, PBS (pH=7.4) and PBS solution of HAS in order to indicate which blood-pool effect is expressed by the complexes 2a-e.
smiles,measurement,setting,value
O=C([O-])CN1CCN(CC(=O)[O-])CCN(CC(=O)NCC2CCC(C(=O)O)CC2)CCN(CC(=O)[O-])CC1.[Gd+3] (stereo not drawn) [2b],"HPLC peak 2.38 min, 2b (trans)",[1]; 50° C./3 day,93.4%
same,"HPLC peak 2.88 min, 2b (cis)",[1]; 50° C./3 day,2.87%
same,HPLC peak 3.16 min,[1]; 50° C./3 day,0.33%
same,HPLC peak 3.84 min,[1]; 50° C./3 day,0.38%
same,HPLC peak 7.66 min,[1]; 50° C./3 day,0.06%
same,HPLC peak 24.42 min,[1]; 50° C./3 day,0.19%
same,HPLC peak 28.12 min,[1]; 50° C./3 day,0.64%
same,HPLC peak 29.92 min,[1]; 50° C./3 day,0.10%
same,"HPLC peak 34.46 min, Acid",[1]; 50° C./3 day,0.03%
same,HPLC peak 49.58 min,[1]; 50° C./3 day,0.21%
same,"HPLC peak 2.38 min, 2b (trans)",[1]; initial,92.80%
same,"HPLC peak 2.88 min, 2b (cis)",[1]; initial,3.35%
same,HPLC peak 3.16 min,[1]; initial,0.30%
same,HPLC peak 3.84 min,[1]; initial,0.35%
same,HPLC peak 7.66 min,[1]; initial,0.12%
same,HPLC peak 24.42 min,[1]; initial,0.06%
same,HPLC peak 28.12 min,[1]; initial,0.56%
same,HPLC peak 29.92 min,[1]; initial,0.09%
same,"HPLC peak 34.46 min, Acid",[1]; initial,0.34%
same,HPLC peak 49.58 min,[1]; initial,0.19%
same,signal enhancement / signal strength at the liver,ICR mice; ICR mice,strong signal enhancement
same,liver-specificity / class of contrast agent,ICR mice,strong specificity enhancement
same,R1,[2],3.87 ± 0.11 mM⁻¹ s⁻¹
same,R2,[2],3.98 ± 0.26 mM⁻¹ s⁻¹
same,R1 in 0.67 mM HSA,[2],3.98 ± 0.14 mM⁻¹ s⁻¹
same,R2 in 0.67 mM HSA,[2],5.43 ± 0.28 mM⁻¹ s⁻¹
NCCNC(=O)C1CCC(CNC(=O)CN2CCN(CC(=O)[O-])CCN(CC(=O)[O-])CCN(CC(=O)[O-])CC2)CC1.[Gd+3] (stereo not drawn) [2c],HPLC peak 2.58%,"[1]; 2c in water, 50° C./3 day",0.27%
same,HPLC peak 7.61%,"[1]; 2c in water, 50° C./3 day",0.14%
same,HPLC peak 19.86%,"[1]; 2c in water, 50° C./3 day",2.30%
same,"HPLC peak 2.31 min, 2b","[1]; 2c in water, 50° C./3 day",0.11%
same,"HPLC peak 9.10 min, 2c (trans)","[1]; 2c in water, 50° C./3 day",93.11%
same,"HPLC peak 10.60 min, 2c (cis)","[1]; 2c in water, 50° C./3 day",1.19%
same,"HPLC peak 40.68 min, 1c","[1]; 2c in water, 50° C./3 day",0.002%
same,HPLC peak 45.53 min,"[1]; 2c in water, 50° C./3 day",0.18%
same,HPLC peak 49.81 min,"[1]; 2c in water, 50° C./3 day",0.11%
same,HPLC peak 2.58%,"[1]; 2c in water, initial",0.27%
same,HPLC peak 7.61%,"[1]; 2c in water, initial",0.14%
same,"HPLC peak 2.31 min, 2b","[1]; 2c in water, initial",0.06%
same,"HPLC peak 9.10 min, 2c (trans)","[1]; 2c in water, initial",91.05%
same,"HPLC peak 10.60 min, 2c (cis)","[1]; 2c in water, initial",1.35%
same,"HPLC peak 40.68 min, 1c","[1]; 2c in water, initial",1.65%
same,HPLC peak 45.53 min,"[1]; 2c in water, initial",0.16%
same,HPLC peak 49.81 min,"[1]; 2c in water, initial",0.09%
same,signal enhancement / signal strength at the liver,ICR mice; ICR mice,strong signal enhancement
same,liver-specificity / class of contrast agent,ICR mice,strong specificity enhancement
same,R1,[2],3.68 ± 0.13 mM⁻¹ s⁻¹
same,R2,[2],3.62 ± 0.26 mM⁻¹ s⁻¹
same,R1 in 0.67 mM HSA,[2],3.74 ± 0.07 mM⁻¹ s⁻¹
same,R2 in 0.67 mM HSA,[2],4.10 ± 0.07 mM⁻¹ s⁻¹
NC1CCC(NC(=O)CN2CCN(CC(=O)[O-])CCN(CC(=O)[O-])CCN(CC(=O)[O-])CC2)CC1.[Gd+3] (stereo not drawn) [2d],"HPLC peak 6.54 min, 2d",[1]; 50° C./3 day,90.10%
same,HPLC peak 7.79 min,[1]; 50° C./3 day,0.36%
same,HPLC peak 8.86 min,[1]; 50° C./3 day,0.30%
same,HPLC peak 33.15 min,[1]; 50° C./3 day,1.12%
same,HPLC peak 40.33 min,[1]; 50° C./3 day,0.007%
same,HPLC peak 40.81 min,[1]; 50° C./3 day,0.14%
same,HPLC peak 43.77 min,[1]; 50° C./3 day,0.25%
same,HPLC peak 44.51 min,[1]; 50° C./3 day,0.22%
same,HPLC peak 46.56 min,[1]; 50° C./3 day,0.18%
same,"HPLC peak 6.54 min, 2d",[1]; initial,89.67%
same,HPLC peak 7.79 min,[1]; initial,0.30%
same,HPLC peak 8.86 min,[1]; initial,0.30%
same,HPLC peak 33.15 min,[1]; initial,1.20%
same,HPLC peak 40.33 min,[1]; initial,0.16%
same,HPLC peak 40.81 min,[1]; initial,0.14%
same,HPLC peak 43.77 min,[1]; initial,0.27%
same,HPLC peak 44.51 min,[1]; initial,0.23%
same,HPLC peak 46.56 min,[1]; initial,0.19%
same,liver-specificity / class of contrast agent,ICR mice,ECF contrast agent
same,signal enhancement at the kidney and abdominal aorta,"ICR mice; initially after 0.1 mmol Gd/kg i.v., ICR mice",strong signal enhancement
same,R1,[2],3.94 ± 0.13 mM⁻¹ s⁻¹
same,R2,[2],3.68 ± 0.29 mM⁻¹ s⁻¹
same,R1 in 0.67 mM HSA,[2],3.91 ± 0.09 mM⁻¹ s⁻¹
same,R2 in 0.67 mM HSA,[2],4.07 ± 0.09 mM⁻¹ s⁻¹
O=C([O-])CN1CCN(CC(=O)[O-])CCN(CC(=O)NCC2CCCCC2)CCN(CC(=O)[O-])CC1.[Gd+3] [2e],HPLC peak 2.32 min,[1]; 50° C./3 day,0.04%
same,HPLC peak 4.98 min,[1]; 50° C./3 day,0.07%
same,"HPLC peak 17.21 min, 2e",[1]; 50° C./3 day,94.66%
same,"HPLC peak 23.70 min, 2e isomer",[1]; 50° C./3 day,1.57%
same,HPLC peak 40.63 min,[1]; 50° C./3 day,0.05%
same,HPLC peak 42.14 min,[1]; 50° C./3 day,0.05%
same,HPLC peak 43.00 min,[1]; 50° C./3 day,0.05%
same,HPLC peak 44.95 min,[1]; 50° C./3 day,0.05%
same,HPLC peak 45.93 min,[1]; 50° C./3 day,0.03%
same,HPLC peak 46.64 min,[1]; 50° C./3 day,0.01%
same,HPLC peak 48.46 min,[1]; 50° C./3 day,0.03%
same,HPLC peak 49.36 min,[1]; 50° C./3 day,0.18%
same,HPLC peak 2.32 min,[1]; initial,0.04%
same,HPLC peak 4.98 min,[1]; initial,0.09%
same,"HPLC peak 17.21 min, 2e",[1]; initial,94.88%
same,"HPLC peak 23.70 min, 2e isomer",[1]; initial,1.36%
same,HPLC peak 40.63 min,[1]; initial,0.03%
same,HPLC peak 42.14 min,[1]; initial,0.01%
same,HPLC peak 43.00 min,[1]; initial,0.05%
same,HPLC peak 44.95 min,[1]; initial,0.05%
same,HPLC peak 45.93 min,[1]; initial,0.04%
same,HPLC peak 46.64 min,[1]; initial,0.02%
same,HPLC peak 48.46 min,[1]; initial,0.03%
same,HPLC peak 49.36 min,[1]; initial,0.18%
same,R1,[2],4.49 ± 0.18 mM⁻¹ s⁻¹
same,R2,[2],4.52 ± 0.28 mM⁻¹ s⁻¹
same,R1 in 0.67 mM HSA,[2],5.21 ± 0.23 mM⁻¹ s⁻¹
same,R2 in 0.67 mM HSA,[2],6.22 ± 0.28 mM⁻¹ s⁻¹
"CNC[C@H](O)[C@@H](O)[C@H](O)[C@H](O)CO.O=C([O-])CN1CCN(CC(=O)[O-])CCN(CC(=O)O)CCN(CC(=O)[O-])CC1.[Gd+3] [Dotarem, Gd-DOTA, reference compound]",R1,[2],3.59 ± 0.17 mM⁻¹ s⁻¹
same,R2,[2],3.87 ± 0.20 mM⁻¹ s⁻¹
same,R1 in 0.67 mM HSA,[2],4.05 ± 0.13 mM⁻¹ s⁻¹
same,R2 in 0.67 mM HSA,[2],4.30 ± 0.25 mM⁻¹ s⁻¹
